Source: PMC9320886, “Daily Intraperitoneal Administration of Rosiglitazone Does Not Improve Lung Function or Alveolarization in Preterm Rabbits Exposed to Hyperoxia” (Pharmaceutics, 2022)
Like-named read-outs stand apart in the source and are kept apart here.

What was measured:
[1] = Caco-2 permeability assay; format: in vitro ADME; details: human, basolateral to apical
[2] = lung tissue binding by equilibrium dialysis; format: in vitro ADME; details: preterm rabbit lung homogenate, 4 h, 37 °C
Experimental: In vitro lung tissue binding was also determined by equilibrium dialysis as described above. Preterm rabbit lungs (New Zealand White, BIOIVT) were homogenized using a Precellys tissue homogenizer (Bertin instruments, Montigny-le-Bretonneux, France). Precellys lysing vials (CK28-R, Bertin instruments) were filled with lung and buffer according to the following proportion: 1 g of tissue and 5 mL of ice-cold PBS (dilution 1:6). At the end of the homogenization process, a pool of lung homogenate was prepared mixing equal amount of homogenate from three different donors. Test compounds and the positive control were diluted in the pooled lung homogenate to a final concentration of […] and then dispensed into the red chamber of the RED device inserts. PBS was dispensed into the other side. Upon completion of 4 h of incubation (37 °C under shaking), equal aliquots were removed from each chamber and matrix matched with even volumes of lung homogenate or buffer for LC-MS/MS analyses.
Free and Bound percentages of the compounds were calculated as follows:(3) %Free=Area buffer sample/Area lung homogenate sample×100 (4) % Bound=100−%Free

[3] = plasma protein binding by equilibrium dialysis; format: in vitro ADME; parameters: fraction unbound at 4 h: dose or concentration left out as unconfirmed; details: both sexes, New Zealand White, preterm rabbit plasma (pooled), 37 °C
Experimental: In vitro plasma protein binding was determined in preterm rabbit plasma (New Zealand White Pooled Gender, BIOIVT, Hicksville, NY, USA) by equilibrium dialysis using Thermo Fisher Scientific Pierce RED rapid equilibrium dialysis devices (Device Inserts 8K MWCO, Thermo Fisher Scientific, Waltham, MA, USA). The assay was performed using a Tecan Evoware robotic system (Männedorf, Switzerland). Test compounds and the positive control were diluted in the pooled plasma (three donors) to a final concentration of […] and then dispensed into the red chamber of the RED device inserts. Phosphate-Buffered Saline (PBS, from Merck KGaA, Darmstadt, Germany) was dispensed into the other side. Upon completion of 4 h of incubation (37 °C under shaking), equal aliquots were removed from each chamber and matrix matched with even volumes of plasma or buffer for LC-MS/MS analyses.
Free and Bound percentages of the compounds were calculated as follows:(1) %Free=Area buffer sample/Area plasma sample×100 (2) % Bound=100−%Free

[4] = tested on: newborn rats; parameters: method as in PMID 19262292; details: single (24 h) and repeated (7 days) administration, 0.1–8 mg/kg; cited from earlier work
[5] = parameters: method as in PMID 16617452; details: newborn rats; cited from earlier work
[6] = tested on: newborn rats; parameters: method as in PMID 19262292; details: daily i.p. doses as low as 0.3 mg/kg; cited from earlier work
[7] = parameters: method as in PMID 19484746; details: PND 13 mice, chow of nursing mice with 2.5–10 mg/kg of RGZ; cited from earlier work
[8] = tested on: patients with type 2 diabetes; details: cited from earlier work
[9] = tested on: premature rabbit pups with intraventricular hemorrhage; parameters: method as in PMID 34462350; details: twice-daily 0.1 mg/kg; cited from earlier work
[10] = tested on: preterm rabbits exposed to hyperoxia; assay: pulmonary efficacy, daily intraperitoneal 1 mg/kg, preterm rabbits exposed to hyperoxia; format: in vivo, rabbit; details: daily i.p. 1 mg/kg
Experimental: A total of 31 preterm rabbits with a GA of 28 days delivered from 4 does were included in the efficacy study. After delivery, newborn pups were put in hyperoxia (95% oxygen) for 1 h. Surviving pups were exposed to hyperoxia (95% O2) for 7 days and randomized to receiving daily (from postnatal day (PND) 0 to PND 6) intraperitoneal injections of RGZ at 1 mg/kg (n = 15) or the vehicle (n = 16).
Pups were placed on a sterilized soft bedding and remained in the incubator except for the feeding and treatments. Pups were fed 4 h after delivery on PND 0 with a milk replacer (Day One®, Protein 30%, Fat 50%; FoxValley, Aurora, IL, USA). Probiotics, electrolytes, and vitamins are added during the first 7 days (Bio-Lapis®; Probiotics International Ltd., Somerser, UK) and immunoglobulins during the first 2 days (Col-o-Cat®, SanoBest, Hertogenbosch, Netherlands). The standard feeding protocol consisted of incrementally increasing the amounts of milk replacer (PND 0: 40 mg/kg, PND 1: 50 mg/kg/day, PND 2: 75 mg/kg, PND 3–6: 100 mg/kg/day). On Day 2, vitamin K1 was administered intramuscularly (0.002 mg/kg BW, Konakion pediatrique®; Roche, Basel, Switzerland).
At Day 7, invasive lung function testing was performed using the forced oscillation technique with the flexiVent^TM apparatus (SCIREQ, Montréal, Canada). […]
The following parameters were measured: total inspiratory capacity, resistance of the respiratory system (Rrs), lung tissue damping (G), lung tissue elastance (H), and static compliance (Cst). […] The average of three measurements was calculated and used in the analysis. […]
The left lung and the right lungs were embedded in paraffin, cut, and stained with hematoxylin and eosin (H&E) following standard histology protocols. The radial alveolar count (RAC) was performed by an expert pathologist blinded to the experimental design by drawing a perpendicular line from the lumen of the terminal bronchiole to the nearest connective tissue septum or pleural margin and the number of saccules or alveoli crossed by this line was counted as previously described. […]

CN(CCOc1ccc(CC2SC(=O)NC2=O)cc1)c1ccccn1 (stereo not drawn) [RGZ, rosiglitazone]
Papp B→A at 2 h, 10 µM ([1]; Caco-2, pH 7.4, with Elacridar (GF120918), concentration not given, with Elacridar, read-out: Papp with Pgp Inhibitor (B–A) (converted)): 11.4 ×10⁻⁶ cm/s | Papp B→A at 2 h, 10 µM ([1]; Caco-2, pH 7.4, 2 h, without Pgp inhibitor, read-out: Papp (B–A) (converted)): 10 ×10⁻⁶ cm/s | Lung Tissue Binding (%) [2]: 94.2 ± 0.7% | fraction unbound at 4 h [3]: 0.025 | serum cholesterol and triglycerides levels [4]: remained unchanged | plasma levels reported to protect the lungs from hyperoxia [5]: 350 ng/mL | alveolarization [6]: enhanced | surfactant synthesis (lamellar body count, SP-B and SP-C expression) [6]: significantly promoted | RGZ in the lung tissue [7]: 90.7 pg/g | plasma triglycerides, large- and medium-sized lipoproteins, low- and high-density cholesterol ([8]; adult patients with type 2 diabetes and dyslipidemia): increases | risk of heart failure and cardiovascular mortality ([8]; diabetic patients): increases the risk | myelination and neurological recovery [9]: improved | weight gain ([10]; PND 7): 43.46 ± 4.84 g | alveolarization (RAC) ([10]; PND 7, vs vehicle): neither improved | lung function (inspiratory capacity, G, H and Cst) ([10]; PND 7, vs vehicle): neither improved
